Laboratory results reported in patent publication US9060961B2, “Molecules and methods for treatment and detection of cancer” (UNIVERSITY OF WASHINGTON, priority 2006, dated 2015).

Tested on: T lymphocytes in peripheral blood mononuclear cells
Experiment: IFN-gamma ELISPOT of human T cells with IGF1R peptides
Type: cell-based
Conditions: for Immunogenicity Cancer: responders / cancer patients tested; for Immunogenicity Volunteer: responders / volunteer donors tested
Protocol: A scoring system based on internet available epitope prediction algorithms was developed to predict the peptides derived from IGF1R that have optimal binding affinity and promiscuity against multiple MHC class II molecules. […] After stimulating human T cells with the peptides, IFN-gamma secretion was determined via ELISPOT analysis. Five of the most immunogenic peptides were selected for in vivo evaluation in neu-transgenic mice to assess the potential of clinical efficacy.

## WSFGVVLWEIATLAE [p 1196-1210]
  Immunogenicity Cancer: 2/10
  Immunogenicity Volunteer: 1/5

## SKMIQMAGEIADGMA [p 1110-1124]
  Immunogenicity Cancer: 1/10

## LVIMLYVFHRKRNNS [p 951-965]
  Immunogenicity Cancer: 3/10

## IDIRNDYQQLKRLEN [p 37-5]
  Immunogenicity Cancer: 1/10

## DERQPYAHMNGGRKN [p 1341-1355]
  Immunogenicity Cancer: 1/10

## SHALVSLSFLKNLRL [p 393-407]
  Immunogenicity Cancer: 2/10
  Immunogenicity Volunteer: 2/5

## GVLVLRASFDERQPY [p 1332-1346]
  Immunogenicity Cancer: 2/10

## YSFYVLDNQNLQQLW [p 418-432]
  Immunogenicity Cancer: 1/10

## TQYAVYVKAVTLTMV [p 575-589]
  Immunogenicity Cancer: 1/10
  Immunogenicity Volunteer: 1/5

## DYRSYRFPKLTVITE [p 69-83]
  Immunogenicity Volunteer: 1/5

## ASNFVFARTMPAEGA [p 817-831]
  Immunogenicity Cancer: 1/10

## VIEGYLHILLISKAE [p 54-68]
  Immunogenicity Cancer: 2/10

## GMAYLNANKFVHRDL [p 1122-1136]
  Immunogenicity Cancer: 1/10

## LIIALPVAVLLIVGG [p 936-950]
  Immunogenicity Cancer: 4/10
  Immunogenicity Volunteer: 1/5

## IRGWKLFYNYALVIF [p 106-120]
  Immunogenicity Cancer: 3/10
  Immunogenicity Volunteer: 2/5
